Reference: US4508663A, “Process for preparing thiosulfenamide derivatives of N-phosphonomethylglycinonitriles” (Monsanto Company, priority 1983, dated 1985)

What was measured:
Assay in all cases: post-emergence herbicidal activity, greenhouse
Format in all cases: in vivo
Barnyardgrass = tested on: Barnyardgrass
In short: (§1)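 Plants grown from seed or perennial propagules in greenhouse soil pans were sprayed at two to three weeks with compound solution or suspension containing about 0.4% emulsifier, at the stated application rates. Injury relative to untreated controls was scored at approximately two and four weeks after treatment on a post-emergence activity index.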

Canada Thistle = details: Table I, 4 WAT
In short: as §1

Cocklebur = tested on: Cocklebur
In short: as §1

Crabgrass = details: Table II
In short: as §1

Downy Brome = tested on: Downy Brome
In short: as §1

Hemp Sesbania = details: Table II
In short: as §1

Johnsongrass = details: Table I, 4 WAT
In short: as §1

Lambsquarters = tested on: Lambsquarters
In short: as §1

Morningglory = tested on: Morningglory
In short: as §1

Panicum Spp = details: Table II
In short: as §1

Quackgrass = details: Table I, 4 WAT
In short: as §1

Rice = details: Table II
In short: as §1

Smartweed = details: Table I, 4 WAT
In short: as §1

Sorghum = details: Table II
In short: as §1

Soybean = details: Table II
In short: as §1

Sugar Beet = details: Table II
In short: as §1

Velvetleaf = tested on: Velvetleaf
In short: as §1

Wheat = details: Table II
In short: as §1

Wild Buckwheat = details: Table II
In short: as §1

Yellow Nutsedge = details: Table I, 4 WAT
In short: as §1

In the case of `CC(C)SSN(CC#N)CP(=O)(Oc1ccccc1)Oc1ccccc1` [VI, Phosphonic acid, [[(cyanomethyl)[(1-methylethyl)-dithio]amino]methyl]-, diphenyl ester], the “post-emergence herbicidal activity index” value (Barnyardgrass; Table I, 4 WAT, 5.6 kg/h) is reported as 2 (50-74% control), the “post-emergence herbicidal activity index” value (Barnyardgrass; Table I, 4 WAT, 11.2 kg/h) is reported as 2 (50-74% control) and the “post-emergence herbicidal activity index” value (Barnyardgrass; Table II, 2 WAT, 1.12 kg/h) is reported as 1 (25-49% control). The “post-emergence herbicidal activity index” value (Barnyardgrass; Table II, 2 WAT, 5.6 kg/h) was 2 (50-74% control), the “post-emergence herbicidal activity index” value (Barnyardgrass; Table II, 4 WAT, 0.28 kg/h) was 0 (0-24% control) and the “post-emergence herbicidal activity index” value (Barnyardgrass; Table II, 4 WAT, 1.12 kg/h) was 0 (0-24% control). For the same molecule, the “post-emergence herbicidal activity index” value (Barnyardgrass; Table II, 4 WAT, 5.6 kg/h) was 3 (75-99% control), the “post-emergence herbicidal activity index” value (Canada Thistle; 5.6 kg/h) was 2 (50-74% control) and the “post-emergence herbicidal activity index” value (Canada Thistle; 11.2 kg/h) was 2 (50-74% control). For the same molecule, the “post-emergence herbicidal activity index” value (Cocklebur; Table I, 4 WAT, 5.6 kg/h) was 2 (50-74% control), the “post-emergence herbicidal activity index” value (Cocklebur; Table I, 4 WAT, 11.2 kg/h) was 2 (50-74% control) and the “post-emergence herbicidal activity index” value (Cocklebur; Table II, 2 WAT, 1.12 kg/h) was 1 (25-49% control). For the same molecule, the “post-emergence herbicidal activity index” value (Cocklebur; Table II, 2 WAT, 5.6 kg/h) was 2 (50-74% control), the “post-emergence herbicidal activity index” value (Cocklebur; Table II, 4 WAT, 0.28 kg/h) was 0 (0-24% control) and the “post-emergence herbicidal activity index” value (Cocklebur; Table II, 4 WAT, 1.12 kg/h) was 1 (25-49% control). The “post-emergence herbicidal activity index” value (Cocklebur; Table II, 4 WAT, 5.6 kg/h) was 3 (75-99% control), the “post-emergence herbicidal activity index” value (Crabgrass; 2 WAT, 1.12 kg/h) was 1 (25-49% control) and the “post-emergence herbicidal activity index” value (Crabgrass; 2 WAT, 5.6 kg/h) was 3 (75-99% control). The “post-emergence herbicidal activity index” value (Crabgrass; 4 WAT, 0.28 kg/h) was 1 (25-49% control), the “post-emergence herbicidal activity index” value (Crabgrass; 4 WAT, 1.12 kg/h) was 1 (25-49% control) and the “post-emergence herbicidal activity index” value (Crabgrass; 4 WAT, 5.6 kg/h) was 3 (75-99% control). For the same molecule, the “post-emergence herbicidal activity index” value (Downy Brome; Table I, 4 WAT, 5.6 kg/h) was 2 (50-74% control), the “post-emergence herbicidal activity index” value (Downy Brome; Table I, 4 WAT, 11.2 kg/h) was 3 (75-99% control) and the “post-emergence herbicidal activity index” value (Downy Brome; Table II, 2 WAT, 1.12 kg/h) was 0 (0-24% control). The “post-emergence herbicidal activity index” value (Downy Brome; Table II, 2 WAT, 5.6 kg/h) was 2 (50-74% control), the “post-emergence herbicidal activity index” value (Downy Brome; Table II, 4 WAT, 0.28 kg/h) was 0 (0-24% control) and the “post-emergence herbicidal activity index” value (Downy Brome; Table II, 4 WAT, 1.12 kg/h) was 0 (0-24% control). For the same molecule, the “post-emergence herbicidal activity index” value (Downy Brome; Table II, 4 WAT, 5.6 kg/h) was 2 (50-74% control), the “post-emergence herbicidal activity index” value (Hemp Sesbania; 2 WAT, 1.12 kg/h) was 0 (0-24% control) and the “post-emergence herbicidal activity index” value (Hemp Sesbania; 2 WAT, 5.6 kg/h) was 1 (25-49% control). For the same molecule, the “post-emergence herbicidal activity index” value (Hemp Sesbania; 4 WAT, 0.28 kg/h) was 0 (0-24% control), the “post-emergence herbicidal activity index” value (Hemp Sesbania; 4 WAT, 1.12 kg/h) was 0 (0-24% control) and the “post-emergence herbicidal activity index” value (Hemp Sesbania; 4 WAT, 5.6 kg/h) was 1 (25-49% control). The “post-emergence herbicidal activity index” value (Johnsongrass; 5.6 kg/h) was 3 (75-99% control), the “post-emergence herbicidal activity index” value (Johnsongrass; 11.2 kg/h) was 3 (75-99% control) and the “post-emergence herbicidal activity index” value (Lambsquarters; Table I, 4 WAT, 5.6 kg/h) was 3 (75-99% control). For the same molecule, the “post-emergence herbicidal activity index” value (Lambsquarters; Table I, 4 WAT, 11.2 kg/h) was 4 (100% control), the “post-emergence herbicidal activity index” value (Lambsquarters; Table II, 2 WAT, 1.12 kg/h) was 3 (75-99% control) and the “post-emergence herbicidal activity index” value (Lambsquarters; Table II, 2 WAT, 5.6 kg/h) was 3 (75-99% control). For the same molecule, the “post-emergence herbicidal activity index” value (Lambsquarters; Table II, 4 WAT, 0.28 kg/h) was 0 (0-24% control), the “post-emergence herbicidal activity index” value (Lambsquarters; Table II, 4 WAT, 1.12 kg/h) was 3 (75-99% control) and the “post-emergence herbicidal activity index” value (Lambsquarters; Table II, 4 WAT, 5.6 kg/h) was 3 (75-99% control). The “post-emergence herbicidal activity index” value (Morningglory; Table I, 4 WAT, 5.6 kg/h) was 2 (50-74% control), the “post-emergence herbicidal activity index” value (Morningglory; Table I, 4 WAT, 11.2 kg/h) was 2 (50-74% control) and the “post-emergence herbicidal activity index” value (Morningglory; Table II, 2 WAT, 1.12 kg/h) was 1 (25-49% control). For the same molecule, the “post-emergence herbicidal activity index” value (Morningglory; Table II, 2 WAT, 5.6 kg/h) was 1 (25-49% control), the “post-emergence herbicidal activity index” value (Morningglory; Table II, 4 WAT, 0.28 kg/h) was 0 (0-24% control) and the “post-emergence herbicidal activity index” value (Morningglory; Table II, 4 WAT, 1.12 kg/h) was 0 (0-24% control). For the same molecule, the “post-emergence herbicidal activity index” value (Morningglory; Table II, 4 WAT, 5.6 kg/h) was 1 (25-49% control), the “post-emergence herbicidal activity index” value (Panicum Spp; 2 WAT, 1.12 kg/h) was 0 (0-24% control) and the “post-emergence herbicidal activity index” value (Panicum Spp; 2 WAT, 5.6 kg/h) was 1 (25-49% control). The “post-emergence herbicidal activity index” value (Panicum Spp; 4 WAT, 0.28 kg/h) was 0 (0-24% control), the “post-emergence herbicidal activity index” value (Panicum Spp; 4 WAT, 1.12 kg/h) was 0 (0-24% control) and the “post-emergence herbicidal activity index” value (Panicum Spp; 4 WAT, 5.6 kg/h) was 1 (25-49% control). For the same molecule, the “post-emergence herbicidal activity index” value (Quackgrass; 5.6 kg/h) was 0 (0-24% control), the “post-emergence herbicidal activity index” value (Quackgrass; 11.2 kg/h) was 1 (25-49% control) and the “post-emergence herbicidal activity index” value (Rice; 2 WAT, 1.12 kg/h) was 0 (0-24% control). The “post-emergence herbicidal activity index” value (Rice; 2 WAT, 5.6 kg/h) was 0 (0-24% control), the “post-emergence herbicidal activity index” value (Rice; 4 WAT, 0.28 kg/h) was 0 (0-24% control) and the “post-emergence herbicidal activity index” value (Rice; 4 WAT, 1.12 kg/h) was 0 (0-24% control). The “post-emergence herbicidal activity index” value (Rice; 4 WAT, 5.6 kg/h) was 0 (0-24% control), the “post-emergence herbicidal activity index” value (Smartweed; 5.6 kg/h) was 2 (50-74% control) and the “post-emergence herbicidal activity index” value (Smartweed; 11.2 kg/h) was 2 (50-74% control). The “post-emergence herbicidal activity index” value (Sorghum; 2 WAT, 1.12 kg/h) was 1 (25-49% control), the “post-emergence herbicidal activity index” value (Sorghum; 2 WAT, 5.6 kg/h) was 2 (50-74% control) and the “post-emergence herbicidal activity index” value (Sorghum; 4 WAT, 0.28 kg/h) was 0 (0-24% control). The “post-emergence herbicidal activity index” value (Sorghum; 4 WAT, 1.12 kg/h) was 1 (25-49% control), the “post-emergence herbicidal activity index” value (Sorghum; 4 WAT, 5.6 kg/h) was 3 (75-99% control) and the “post-emergence herbicidal activity index” value (Soybean; 2 WAT, 1.12 kg/h) was 0 (0-24% control). The “post-emergence herbicidal activity index” value (Soybean; 2 WAT, 5.6 kg/h) was 1 (25-49% control), the “post-emergence herbicidal activity index” value (Soybean; 4 WAT, 0.28 kg/h) was 0 (0-24% control) and the “post-emergence herbicidal activity index” value (Soybean; 4 WAT, 1.12 kg/h) was 0 (0-24% control). The “post-emergence herbicidal activity index” value (Soybean; 4 WAT, 5.6 kg/h) was 1 (25-49% control), the “post-emergence herbicidal activity index” value (Sugar Beet; 2 WAT, 1.12 kg/h) was 0 (0-24% control) and the “post-emergence herbicidal activity index” value (Sugar Beet; 2 WAT, 5.6 kg/h) was 0 (0-24% control). For the same molecule, the “post-emergence herbicidal activity index” value (Sugar Beet; 4 WAT, 0.28 kg/h) was 0 (0-24% control), the “post-emergence herbicidal activity index” value (Sugar Beet; 4 WAT, 1.12 kg/h) was 0 (0-24% control) and the “post-emergence herbicidal activity index” value (Sugar Beet; 4 WAT, 5.6 kg/h) was 1 (25-49% control). For the same molecule, the “post-emergence herbicidal activity index” value (Velvetleaf; Table I, 4 WAT, 5.6 kg/h) was 1 (25-49% control), the “post-emergence herbicidal activity index” value (Velvetleaf; Table I, 4 WAT, 11.2 kg/h) was 2 (50-74% control) and the “post-emergence herbicidal activity index” value (Velvetleaf; Table II, 2 WAT, 1.12 kg/h) was 0 (0-24% control). The “post-emergence herbicidal activity index” value (Velvetleaf; Table II, 2 WAT, 5.6 kg/h) was 1 (25-49% control), the “post-emergence herbicidal activity index” value (Velvetleaf; Table II, 4 WAT, 0.28 kg/h) was 0 (0-24% control) and the “post-emergence herbicidal activity index” value (Velvetleaf; Table II, 4 WAT, 1.12 kg/h) was 1 (25-49% control). The “post-emergence herbicidal activity index” value (Velvetleaf; Table II, 4 WAT, 5.6 kg/h) was 2 (50-74% control), the “post-emergence herbicidal activity index” value (Wheat; 2 WAT, 1.12 kg/h) was 1 (25-49% control) and the “post-emergence herbicidal activity index” value (Wheat; 2 WAT, 5.6 kg/h) was 1 (25-49% control). For the same molecule, the “post-emergence herbicidal activity index” value (Wheat; 4 WAT, 0.28 kg/h) was 0 (0-24% control), the “post-emergence herbicidal activity index” value (Wheat; 4 WAT, 1.12 kg/h) was 0 (0-24% control) and the “post-emergence herbicidal activity index” value (Wheat; 4 WAT, 5.6 kg/h) was 1 (25-49% control). The “post-emergence herbicidal activity index” value (Wild Buckwheat; 2 WAT, 1.12 kg/h) was 0 (0-24% control), the “post-emergence herbicidal activity index” value (Wild Buckwheat; 2 WAT, 5.6 kg/h) was 1 (25-49% control) and the “post-emergence herbicidal activity index” value (Wild Buckwheat; 4 WAT, 0.28 kg/h) was 0 (0-24% control). The “post-emergence herbicidal activity index” value (Wild Buckwheat; 4 WAT, 1.12 kg/h) was 0 (0-24% control), the “post-emergence herbicidal activity index” value (Wild Buckwheat; 4 WAT, 5.6 kg/h) was 1 (25-49% control) and the “post-emergence herbicidal activity index” value (Yellow Nutsedge; 5.6 kg/h) was 0 (0-24% control). The “post-emergence herbicidal activity index” value (Yellow Nutsedge; 11.2 kg/h) was 3 (75-99% control).
